Read-outs that look alike come from different tables or passages of the source.
Assays:
[1] = test system: Corynebacterium glutamicum ATCC13032; test: Bacterial growth in microscale cultivation, C. glutamicum; assay type: cell-based; settings: for activity at 8 µM / activity at 80 µM / activity at 400 µM / activity at 160 µM: Corynebacterium glutamicum; for activity at 8 µM / activity at 80 µM / activity at 400 µM / activity at 160 µM / Lag Phase: relative to control
Procedure: (§1) The following bacteria were cultivated in the presence of trans-chalcone derived inhibitors: Corynebacterium glutamicum ATCC13032[43], Escherichia coli K-12 MG1655[44], Pseudomonas putida KT2440[45], and Bacillus subtilis 168[46]. The growth of these bacteria was monitored in flower-well plates shaken at 1200 rpm as backscatter at 620 nm (gain 20) using a BioLector® microscale cultivation system (m2p labs, Baesweiler, Germany). For further experimental details please refer to the Supplementary Information.
(§2) medium or the appropriate minimal medium and shaken at 140 rpm overnight. For inoculation of
(§3) the main culture, cells equivalent to an optical density at 600 nm of 0.5 (C. glutamicum, E. coli,
(§4) and P. putida) or 0.25 (B. subtilis) in 800 µL medium were washed and resuspended in fresh
(§5) media. Inhibitor substances were dissolved in DMSO and added to the media to a final
(§6) Since the least polar trans-chalcone and 2’-hydroxychalcone precipitated in the growth media at
(§7) the highest concentrations, the maximal concentration of these compounds was reduced to 400
(§8) µM and 100 µM, respectively. The final backscatter at 620 nm, the growth rate (h-1), and the
(§9) duration of the lag phase of all cultures were determined in a BioLector microscale cultivation
(§10) system in comparison to negative controls supplemented with the solvent DMSO. A longer lag

F. trinervia PEPC = target: T1, F. trinervia PEPC (Flaveria trinervia, UniProt P30694); test: biochemical; assay type: biochemical
T1 construct: the full-length ppcA gene of PEPC from F. trinervia (EMBL-Bank X61304); made in house; host or cells: Escherichia coli BL21(DE3)
T1 sequence (P30694 1-966): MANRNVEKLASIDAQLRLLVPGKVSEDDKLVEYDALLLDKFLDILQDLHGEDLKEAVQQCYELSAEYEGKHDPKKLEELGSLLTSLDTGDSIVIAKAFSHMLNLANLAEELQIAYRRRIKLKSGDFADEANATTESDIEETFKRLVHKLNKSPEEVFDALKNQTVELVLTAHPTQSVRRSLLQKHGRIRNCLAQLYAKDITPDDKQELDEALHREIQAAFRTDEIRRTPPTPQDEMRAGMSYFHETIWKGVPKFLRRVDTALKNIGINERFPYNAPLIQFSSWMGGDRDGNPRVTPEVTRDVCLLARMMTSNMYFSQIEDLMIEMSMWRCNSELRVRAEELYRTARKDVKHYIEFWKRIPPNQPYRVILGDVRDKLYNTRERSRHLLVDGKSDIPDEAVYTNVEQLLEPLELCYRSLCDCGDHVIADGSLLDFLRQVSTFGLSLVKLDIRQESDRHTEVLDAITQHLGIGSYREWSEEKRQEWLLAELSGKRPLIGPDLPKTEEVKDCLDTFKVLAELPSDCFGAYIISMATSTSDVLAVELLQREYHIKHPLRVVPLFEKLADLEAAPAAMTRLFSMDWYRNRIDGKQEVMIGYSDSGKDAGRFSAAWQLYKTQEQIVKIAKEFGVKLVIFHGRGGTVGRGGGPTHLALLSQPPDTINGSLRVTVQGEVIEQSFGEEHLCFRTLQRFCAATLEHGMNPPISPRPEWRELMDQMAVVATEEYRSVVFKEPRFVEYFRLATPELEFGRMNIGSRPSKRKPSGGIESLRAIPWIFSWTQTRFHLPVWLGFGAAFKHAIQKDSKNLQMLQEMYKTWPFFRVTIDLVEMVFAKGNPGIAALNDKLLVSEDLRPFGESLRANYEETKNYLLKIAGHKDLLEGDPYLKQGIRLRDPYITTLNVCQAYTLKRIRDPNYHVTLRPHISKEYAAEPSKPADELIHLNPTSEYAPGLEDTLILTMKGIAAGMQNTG
Procedure: The IC50 values of small molecule compounds on F. pringlei and F. trinervia PEPCs were determined using PEPC coupled spectrophotometric assay. The amount of NADH oxidized by NADH-malate dehydrogenase was measured by the decrease in absorbance at 340 nm in a Beckman DU-800 spectrophotometer, thus the value is in proportion to the corresponding substrate conversion of the enzyme. […] The reactions were started by adding two folds of the Km value of PEP for each enzyme. The data were analyzed using GraFit (Erithacus Software, UK).

Bacillus subtilis 168 = test: Bacterial growth in microscale cultivation, B. subtilis; assay type: cell-based; settings: for activity at 8 µM / activity at 80 µM / activity at 800 µM / activity at 160 µM / Lag Phase: relative to control
Procedure: as §1, §2, §3, §4, §5, §6, §7, §8, §9, §10

[2] = test system: Escherichia coli K-12 MG1655; test: Bacterial growth in microscale cultivation, E. coli; assay type: cell-based; settings: relative to control; for activity at 8 µM / activity at 80 µM / activity at 800 µM: Escherichia coli
Procedure: as §1, §2, §3, §4, §5, §6, §7, §8, §9, §10

[3] = Minimal medium, highest concentration tested (10× IC50) if not stated otherwise

`O=C(/C=C/c1ccccc1)c1ccccc1` [Compound 1, trans-Chalcone] was tested, and the activity at 8 µM ([1]; ATCC13032, complex medium, 8 µM, read-out: Final Backscatter) was 98.7%, the activity at 8 µM ([1]; ATCC13032, complex medium, 8 µM, read-out: Growth rate) was 105% and the activity at 80 µM ([1]; ATCC13032, complex medium, 80 µM, read-out: Final Backscatter) was 104%. For the same molecule, the activity at 80 µM ([1]; ATCC13032, complex medium, 80 µM, read-out: Growth rate) was 103%, the activity at 400 µM ([1]; ATCC13032, complex medium, 400 µM, read-out: Final Backscatter) was 106% and the activity at 400 µM ([1]; ATCC13032, complex medium, 400 µM, read-out: Growth rate) was 103%. For the same molecule, the activity at 8 µM ([1]; ATCC13032, minimal medium, 8 µM, read-out: Final Backscatter) was 99.7%, the activity at 8 µM ([1]; ATCC13032, minimal medium, 8 µM, read-out: Growth rate) was 99.3% and the activity at 80 µM ([1]; ATCC13032, minimal medium, 80 µM, read-out: Final Backscatter) was 97%. The activity at 80 µM ([1]; ATCC13032, minimal medium, 80 µM, read-out: Growth rate) was 97.1%, the activity at 160 µM ([1]; ATCC13032, minimal medium, 160 µM, read-out: Final Backscatter) was 98.3% and the activity at 160 µM ([1]; ATCC13032, minimal medium, 160 µM, read-out: Growth rate) was 92.5%. For the same molecule, the activity at 400 µM ([1]; ATCC13032, minimal medium, 400 µM, read-out: Final Backscatter) was 99.5%, the activity at 400 µM ([1]; ATCC13032, minimal medium, 400 µM, read-out: Growth rate) was 87.5% and the “Influence on bacterial growth” value [1, 3] was “μ↓ (5× IC50)”. The “Lag Phase” value ([1]; complex medium, 8 µM) was 100,0%, the “Lag Phase” value ([1]; complex medium, 80 µM) was 99,5% and the “Lag Phase” value ([1]; complex medium, 400 µM) was 103,7%. For the same molecule, the “Lag Phase” value ([1]; minimal medium, 8 µM) was 100,0%, the “Lag Phase” value ([1]; minimal medium, 80 µM) was 102,3% and the “Lag Phase” value ([1]; minimal medium, 160 µM) was 109,9%. The “Lag Phase” value ([1]; minimal medium, 400 µM) was 113,6%, the “Selectivity C4/C3” value (F. trinervia PEPC; C4 PEPC over C3 isoform) was 1.5 fold and the IC50 (F. trinervia PEPC; IC50 F. trinervia PEPC, C4 PEPC) was 77.5 ± 2.7 µM. The activity at 8 µM (Bacillus subtilis 168; Bacillus subtilis, 168, complex medium, 8 µM, read-out: Final Backscatter) was 95.4%, the activity at 8 µM (Bacillus subtilis 168; Bacillus subtilis, 168, complex medium, 8 µM, read-out: Growth rate) was 115% and the activity at 80 µM (Bacillus subtilis 168; Bacillus subtilis, 168, complex medium, 80 µM, read-out: Final Backscatter) was 99%. The activity at 80 µM (Bacillus subtilis 168; Bacillus subtilis, 168, complex medium, 80 µM, read-out: Growth rate) was 119%, the activity at 800 µM (Bacillus subtilis 168; Bacillus subtilis, 168, complex medium, 800 µM, read-out: Final Backscatter) was 103% and the activity at 800 µM (Bacillus subtilis 168; Bacillus subtilis, 168, complex medium, 800 µM, read-out: Growth rate) was 130%. For the same molecule, the activity at 8 µM (Bacillus subtilis 168; Bacillus subtilis, 168, minimal medium, 8 µM, read-out: Final Backscatter) was 89.6%, the activity at 8 µM (Bacillus subtilis 168; Bacillus subtilis, 168, minimal medium, 8 µM, read-out: Growth rate) was 118% and the activity at 80 µM (Bacillus subtilis 168; Bacillus subtilis, 168, minimal medium, 80 µM, read-out: Final Backscatter) was 88.8%. It also gave an activity at 80 µM (Bacillus subtilis 168; Bacillus subtilis, 168, minimal medium, 80 µM, read-out: Growth rate) of 105%, an activity at 160 µM (Bacillus subtilis 168; Bacillus subtilis, 168, minimal medium, 160 µM, read-out: Final Backscatter) of 89.5% and an activity at 160 µM (Bacillus subtilis 168; Bacillus subtilis, 168, minimal medium, 160 µM, read-out: Growth rate) of 97.3%. The activity at 800 µM (Bacillus subtilis 168; Bacillus subtilis, 168, minimal medium, 800 µM, read-out: Final Backscatter) was 83.6%, the activity at 800 µM (Bacillus subtilis 168; Bacillus subtilis, 168, minimal medium, 800 µM, read-out: Growth rate) was 93.3% and the “Influence on bacterial growth” value (Bacillus subtilis 168; [3]) was “lag↑ (2× IC50)”. The “Lag Phase” value (Bacillus subtilis 168; complex medium, 8 µM) was 103,5%, the “Lag Phase” value (Bacillus subtilis 168; complex medium, 80 µM) was 103,5% and the “Lag Phase” value (Bacillus subtilis 168; complex medium, 800 µM) was 101,2%. For the same molecule, the “Lag Phase” value (Bacillus subtilis 168; minimal medium, 8 µM) was 111,6%, the “Lag Phase” value (Bacillus subtilis 168; minimal medium, 80 µM) was 109,9% and the “Lag Phase” value (Bacillus subtilis 168; minimal medium, 160 µM) was 110,6%. The “Lag Phase” value (Bacillus subtilis 168; minimal medium, 800 µM) was 121,3%, the activity at 8 µM ([2]; MG1655, complex medium, 8 µM, read-out: Final Backscatter) was 99% and the activity at 8 µM ([2]; MG1655, complex medium, 8 µM, read-out: Growth rate) was 105%. The activity at 80 µM ([2]; MG1655, complex medium, 80 µM, read-out: Final Backscatter) was 97.4%, the activity at 80 µM ([2]; MG1655, complex medium, 80 µM, read-out: Growth rate) was 109% and the activity at 800 µM ([2]; MG1655, complex medium, 800 µM, read-out: Final Backscatter) was 108%. It also gave an activity at 800 µM ([2]; MG1655, complex medium, 800 µM, read-out: Growth rate) of 94.7%, an activity at 8 µM ([2]; MG1655, minimal medium, 8 µM, read-out: Final Backscatter) of 100% and an activity at 8 µM ([2]; MG1655, minimal medium, 8 µM, read-out: Growth rate) of 97.5%. It also gave an activity at 80 µM ([2]; MG1655, minimal medium, 80 µM, read-out: Final Backscatter) of 95.1%, an activity at 80 µM ([2]; MG1655, minimal medium, 80 µM, read-out: Growth rate) of 104% and an activity at 800 µM ([2]; MG1655, minimal medium, 800 µM, read-out: Final Backscatter) of 103%. The activity at 800 µM ([2]; MG1655, minimal medium, 800 µM, read-out: Growth rate) was 107%, the “Lag Phase” value ([2]; complex medium, 8 µM) was 102,4% and the “Lag Phase” value ([2]; complex medium, 80 µM) was 102,4%. The “Lag Phase” value ([2]; complex medium, 800 µM) was 101,2%, the “Lag Phase” value ([2]; minimal medium, 8 µM) was 99,1% and the “Lag Phase” value ([2]; minimal medium, 80 µM) was 101,8%. For the same molecule, the “Lag Phase” value ([2]; minimal medium, 800 µM) was 97,8%.

Source: article PMC4893628, “Chalcone-based Selective Inhibitors of a C4 Plant Key Enzyme as Novel Potential Herbicides” (Scientific Reports, 2016)
